Experimental data from patent US9861616B2, “Methods for treating respiratory diseases and formulations therefor” (priority 2013, dated 2018).
Converted amounts (≈) assume the structure as drawn.

Key:
P. aeruginosa (PA) = assay: MIC by microdilution, 36 clinical and laboratory strains with known efflux phenotype; format: cell-based
Procedure: (§1) MICs of 36 clinical and laboratory strains of PA with known efflux phenotype are measured by microdilution in cation-adjusted Muller-Hinton broth (CA-MHB) or in RPMI medium (commonly used in eukaryotic cell culture). Phe-Arg-β-naphthylamide (PaβN, 50 mg/L) and EGTA 5 mM are used to inhibit efflux pumps and alter OM integrity, respectively. P. aeruginosa strain ATCC PAO1 is used as reference. PA12 is a clinical strain overexpressing the 4 main efflux systems (MexAB, MexCD, MexEF, MexXY), PA403 is a laboratory strain deleted in the genes coding for the 4 efflux systems. A series of reference strains or of clinical isolates for which the expression of genes coding for efflux pumps is known is also used for MICs determinations. MICs are measured by microdilution in MH broth or in RPMI medium (used for eukaryotic cells culture) supplemented with 10% of fetal calf serum, or in MH broth supplemented by increasing amounts of serum. EGTA (5 mM) was used as a chelating agent (disrupting outer membrane integrity) and PaβN (50 mg/L) as an unspecific efflux inhibitor.

P. aeruginosa PA12 = assay: MIC by microdilution with PaβN or EGTA, clinical isolate overexpressing efflux pumps; format: cell-based; conditions: Pseudomonas aeruginosa
Procedure: as §1

[1] = test system: MRSA strains from CF patients; assay: Microdilution MICs against 40 MRSA strains from CF patients; format: cell-based, S. aureus; conditions: Staphylococcus aureus, 40 MRSA strains from CF patients
Procedure: Two strains each of mucoid P. aeruginosa (both pyocyanin positive) and […] MRSA (only one strain with gold colonies) isolated from patients at a CF clinic were tested. Additionally, 2 B. cepacia strains were acquired, from Hershey Medical Center. All strains were identified by standard methods. Only one strain per patient was tested. MLVA was done on all strains to examine clonality, and confirmed that examination is not taking place on only one or a few clones. Strains will be stored in skim milk at −70° C. until use.
Original MICs of each strain to CEM-101 and other comparators were tested by CLSI microdilution methodology. Trays were obtained from Trek, Inc., Cleveland, Ohio. Time-kill macrobroth MIC dilution by CLSI was performed for all synergy testing.

TNFα release = assay: LPS-induced TNFα release in PMA-differentiated U937 cells (ELISA); format: cell-based, human
Procedure: Effects of macrolides on lipopolysaccharide (LPS)-induced TNFα release in PMA-differentiated U937 cells. […] LPS-induced TNFα release was evaluated by ELISA. Values represent means of three experiments±SEM. ^##p<0.01 (vs. non-treatment control), *p<0.05, **p<0.01 (vs. treatment with LPS only).
The human monocytic cell line U937 was obtained from the American Type Culture Collection (ATCC, Rockville, Md.). PBMCs from COPD patients were obtained from Brompton hospital and separated by AccuSPIN (Sigma-Aldrich). Cells were cultured in complete growth medium (RPMI 1640) (Sigma-Aldrich) supplemented with 10% fetal bovine serum (FBS) and 1% L-glutamine at 37° C. in a humidified atmosphere with 5% CO2. U937 cells were differentiated into adherent macrophage-like morphology by exposure to PMA (50 ng/mL) for 48 hrs in complete growth medium. Cell viability was assessed microscopically by trypan blue staining. Cell toxicity was determined by MTT assay as needed. This study was approved by the ethics committee of the Royal Brompton Hospitals, and all subjects gave written informed consent.
TNFα and IL-8 concentrations in the supernatant of cell cultures were determined by sandwich ELISA according to the manufacturer's instructions (R&D Systems Europe, Abingdon, UK).
The results were expressed as the mean±SEM. Comparisons of data in two groups were performed using the Student's t test or the Wilcoxon signed rank test. Multiple comparisons were made by one-way ANOVA with post hoc test (Dunnett's) as appropriate. The difference was considered significant at p<0.05. IC50 values (50% inhibitory concentration) for macrolides for production of cytokines or MMP9 were calculated using Prism 4.0 (GraphPad Software Inc., San Diego, Calif.).

## CC[C@H]1OC(=O)[C@H](C)[C@@H](O[C@H]2C[C@@](C)(OC)[C@@H](O)[C@H](C)O2)[C@H](C)[C@@H](O[C@@H]2O[C@H](C)C[C@H](N(C)C)[C@H]2O)[C@](C)(OC)C[C@@H](C)C(=O)[C@H](C)[C@@H](O)[C@]1(C)O [CLR, clarithromycin]
P. aeruginosa (PA); strain 1, efflux AB+, MHB
  MIC: 512 µg/mL (≈ 685 µM)
P. aeruginosa (PA); strain 1, efflux AB+, RPMI
  MIC: 32 µg/mL (≈ 42.8 µM)
P. aeruginosa (PA); strain 2, efflux CD+, MHB
  MIC: 512 µg/mL (≈ 685 µM)
P. aeruginosa (PA); strain 2, efflux CD+, RPMI
  MIC: 128 µg/mL (≈ 171 µM)
P. aeruginosa (PA); strain 3, efflux EF+, RPMI
  MIC: 16 µg/mL (≈ 21.4 µM)
P. aeruginosa (PA); strain 4, efflux XY+, MHB
  MIC: 512 µg/mL (≈ 685 µM)
P. aeruginosa (PA); strain 4, efflux XY+, RPMI
  MIC: 32 µg/mL (≈ 42.8 µM)
P. aeruginosa (PA); strain 11, efflux AB + CD+, MHB
  MIC: 512 µg/mL
P. aeruginosa (PA); strain 11, efflux AB + CD+, RPMI
  MIC: 16 µg/mL
P. aeruginosa (PA); strain 12, efflux AB + CD + EF + XY+, MHB
  MIC: 512 µg/mL
P. aeruginosa (PA); strain 12, efflux AB + CD + EF + XY+, RPMI
  MIC: 16 µg/mL
P. aeruginosa (PA); strain 16, efflux AB + XY+, MHB
  MIC: 512 µg/mL
P. aeruginosa (PA); strain 16, efflux AB + XY+, RPMI
  MIC: 64 µg/mL
P. aeruginosa (PA); strain 21, efflux AB+, MHB
  MIC: 512 µg/mL (≈ 685 µM)
P. aeruginosa (PA); strain 21, efflux AB+, RPMI
  MIC: 64 µg/mL (≈ 85.6 µM)
P. aeruginosa (PA); strain 22, efflux XY+, MHB
  MIC: 512 µg/mL (≈ 685 µM)
P. aeruginosa (PA); strain 22, efflux XY+, RPMI
  MIC: 32 µg/mL (≈ 42.8 µM)
P. aeruginosa (PA); strain 40, efflux EF+, RPMI
  MIC: 16 µg/mL (≈ 21.4 µM)
P. aeruginosa (PA); strain 41, efflux CD+, MHB
  MIC: 512 µg/mL (≈ 685 µM)
P. aeruginosa (PA); strain 41, efflux CD+, RPMI
  MIC: 64 µg/mL (≈ 85.6 µM)
P. aeruginosa (PA); strain 48, efflux CD + EF + XY+, MHB
  MIC: 512 µg/mL
P. aeruginosa (PA); strain 48, efflux CD + EF + XY+, RPMI
  MIC: 64 µg/mL
P. aeruginosa (PA); strain 49, efflux CD + EF + XY+, MHB
  MIC: 512 µg/mL
P. aeruginosa (PA); strain 49, efflux CD + EF + XY+, RPMI
  MIC: 32 µg/mL
P. aeruginosa (PA); strain 63, efflux AB + EF + XY+, MHB
  MIC: 512 µg/mL
P. aeruginosa (PA); strain 63, efflux AB + EF + XY+, RPMI
  MIC: 32 µg/mL
P. aeruginosa (PA); strain 68, efflux AB + XY+, MHB
  MIC: 512 µg/mL
P. aeruginosa (PA); strain 68, efflux AB + XY+, RPMI
  MIC: 64 µg/mL
P. aeruginosa (PA); strain 133, efflux EF + XY+, MHB
  MIC: 512 µg/mL
P. aeruginosa (PA); strain 133, efflux EF + XY+, RPMI
  MIC: 64 µg/mL
P. aeruginosa (PA); strain 156, efflux EF + XY+, MHB
  MIC: 512 µg/mL
P. aeruginosa (PA); strain 156, efflux EF + XY+, RPMI
  MIC: 32 µg/mL
P. aeruginosa (PA); strain 168B, efflux CD + XY+, MHB
  MIC: 512 µg/mL
P. aeruginosa (PA); strain 207, efflux AB + EF + XY+, MHB
  MIC: 512 µg/mL
P. aeruginosa (PA); strain 207, efflux AB + EF + XY+, RPMI
  MIC: 64 µg/mL
P. aeruginosa (PA); strain 266B, efflux AB + CD+, MHB
  MIC: 512 µg/mL
P. aeruginosa (PA); strain 266B, efflux AB + CD+, RPMI
  MIC: 64 µg/mL
P. aeruginosa (PA); strain 333A, efflux AB + EF+, MHB
  MIC: 512 µg/mL
P. aeruginosa (PA); strain 333A, efflux AB + EF+, RPMI
  MIC: 64 µg/mL
P. aeruginosa (PA); strain 335, efflux AB + EF+, MHB
  MIC: 512 µg/mL
P. aeruginosa (PA); strain 335, efflux AB + EF+, RPMI
  MIC: 64 µg/mL
P. aeruginosa (PA); strain 391, efflux EF−, RPMI
  MIC: 16 µg/mL (≈ 21.4 µM)
P. aeruginosa (PA); strain 392, efflux CD−, RPMI
  MIC: 16 µg/mL (≈ 21.4 µM)
P. aeruginosa (PA); strain 394, efflux XY−, MHB
  MIC: 512 µg/mL (≈ 685 µM)
P. aeruginosa (PA); strain 394, efflux XY−, RPMI
  MIC: 32 µg/mL (≈ 42.8 µM)
P. aeruginosa (PA); strain 395, efflux HI−, RPMI
  MIC: 32 µg/mL (≈ 42.8 µM)
P. aeruginosa (PA); strain 396, ompH−, MHB
  MIC: 64 µg/mL (≈ 85.6 µM)
P. aeruginosa (PA); strain 396, ompH−, RPMI
  MIC: 16 µg/mL (≈ 21.4 µM)
P. aeruginosa (PA); strain 397, efflux AB−, MHB
  MIC: 16 µg/mL (≈ 21.4 µM)
P. aeruginosa (PA); strain 397, efflux AB−, RPMI
  MIC: 2 µg/mL (≈ 2.67 µM)
P. aeruginosa (PA); strain 398, efflux CD−, MHB
  MIC: 32 µg/mL (≈ 42.8 µM)
P. aeruginosa (PA); strain 398, efflux CD−, RPMI
  MIC: 4 µg/mL (≈ 5.35 µM)
P. aeruginosa (PA); strain 399, efflux AB − EF−, MHB
  MIC: 16 µg/mL (≈ 21.4 µM)
P. aeruginosa (PA); strain 399, efflux AB − EF−, RPMI
  MIC: 4 µg/mL (≈ 5.35 µM)
P. aeruginosa (PA); strain 400, efflux XY−, MHB
  MIC: 16 µg/mL (≈ 21.4 µM)
P. aeruginosa (PA); strain 400, efflux XY−, RPMI
  MIC: 4 µg/mL (≈ 5.35 µM)
P. aeruginosa (PA); strain 401, ompH−, MHB
  MIC: 8 µg/mL (≈ 10.7 µM)
P. aeruginosa (PA); strain 401, ompH−, RPMI
  MIC: 2 µg/mL (≈ 2.67 µM)
P. aeruginosa (PA); strain 403, efflux AB − CD − EF − XY−, MHB
  MIC: 16 µg/mL (≈ 21.4 µM)
P. aeruginosa (PA); strain 403, efflux AB − CD − EF − XY−, RPMI
  MIC: 4 µg/mL (≈ 5.35 µM)
P. aeruginosa (PA); strain 405, efflux AB − CD − EF − XY−, MHB
  MIC: 8 µg/mL (≈ 10.7 µM)
P. aeruginosa (PA); strain 405, efflux AB − CD − EF − XY−, RPMI
  MIC: 4 µg/mL (≈ 5.35 µM)
P. aeruginosa (PA); strain 434, efflux AB + CD + XY+, MHB
  MIC: 512 µg/mL
P. aeruginosa (PA); strain 434, efflux AB + CD + XY+, RPMI
  MIC: 128 µg/mL
P. aeruginosa (PA); strain PAO1, REFERENCE, MHB
  MIC: 512 µg/mL (≈ 685 µM)
P. aeruginosa (PA); strain PAO1, REFERENCE, RPMI
  MIC: 32 µg/mL (≈ 42.8 µM)
P. aeruginosa PA12; PA12, PA12, CA-MHB, PaβN 50 mg/L
  MIC: 16 µg/mL (≈ 21.4 µM)
P. aeruginosa PA12; PA12, PA12, CA-MHB, control conditions (CT)
  MIC: 512 µg/mL (≈ 685 µM)
P. aeruginosa PA12; PA12, PA12, RPMI, EGTA 5 mM
  MIC: 2 µg/mL (≈ 2.67 µM)
P. aeruginosa PA12; PA12, PA12, RPMI, PaβN 50 mg/L
  MIC: 16 µg/mL (≈ 21.4 µM)
P. aeruginosa PA12; PA12, PA12, RPMI, control conditions (CT)
  MIC: 16 µg/mL (≈ 21.4 µM)
[1]; read-out: MIC50
  MIC50: ≥ 32 µg/mL
[1]; read-out: MIC90
  MIC90: ≥ 32 µg/mL
TNFα release; PMA-differentiated U937 cells, read-out: IC50, LPS-induced TNFα release
  IC50: 426 µM
TNFα release; at a higher concentration (333 μM)
  effect on TNFα production: modest effects
